According to patent US20190169140A1, “IDO1 INHIBITOR AND PREPARATION METHOD AND APPLICATION THEREOF” (SHANDONG LUYE PHARMACEUTICAL CO., LTD., priority 2016, published 2019):

What was measured:
[1] = target: T1, recombinant human IDO1 enzyme (Homo sapiens, UniProt P14902); assay: Test of hIDO1 for enzymatic activity in vitro (NFK Green fluorescence); format: biochemical
T1 construct: purchased NTRC (Netherlands Translational Research Center) NTRC-hIDO-10K
Procedure: 1. Test of hIDO1 for Enzymatic Activity In Vitro
1.1 Purpose of Experiment:
Changes in production of NFK, an IDO1 enzymatic metabolite were detected with NFK Green™ fluorescent molecules. With an IC50 value of a compound as an index, an inhibitory effect of the compound on recombinant human IDO1 enzyme was evaluated.
The compound was diluted with dimethyl sulfoxide (DMSO) to 1 mM, with 10 gradients, each 3-fold dilution, in duplicate. 48 μL of 50 mM phosphate buffer, having pH of 6.5, was transferred by the Bravo automatic liquid processing platform to the compound plate. Then 2 μL of an already diluted compound/DMSO solution was added. After even mixing, 10 μL of the resultant mixture was transferred to the enzymatic reaction plate.
IDO1 enzyme was diluted to 20 nM in a reaction buffer (50 mM phosphate buffer with pH of 6.5, 0.1% of Tween-20, 2% of glycerol, 20 mM ascorbic acid, 20 μg/ml catalase, and 20 μM methylene blue), 20 μL of the diluted IDO1 enzyme was transferred to the enzymatic reaction plate, and incubated at 23° C. for 30 minutes. 10 μL of 400 μM L-type tryptophan substrate was added to start reaction. The incubation lasted at 23° C. for 90 minutes. 10 μL of NFK Green™ fluorescent dye was added. The resultant mixture was sealed with the plate sealing film. After incubation at 37° C. for 4 hours, an Envision multi-functional plate reader was used for reading (Ex 400 nm/Em 510 nm).
A reference well to which the IDO1 enzyme was added but no compound was added was set to have an inhibition rate of 0%, and a reference well to which no IDO1 enzyme was added was set to have an inhibition rate of 100%. Data was analyzed with XLFit 5 to calculate an IC50 value of the compound.

[2] = target: T2, IDO1 enzyme in Hela cells (Homo sapiens, UniProt P14902); assay: Test of hIDO1 for cytological activity (Hela cell kynurenine by LCMS, interferon-γ induced); format: cell-based; conditions: interferon-γ 100 ng/ml, 20 hours
T2 construct: endogenous in cells; host or cells: Hela cells, induced with recombinant human interferon-γ
T2 sequence (P14902 whole entry): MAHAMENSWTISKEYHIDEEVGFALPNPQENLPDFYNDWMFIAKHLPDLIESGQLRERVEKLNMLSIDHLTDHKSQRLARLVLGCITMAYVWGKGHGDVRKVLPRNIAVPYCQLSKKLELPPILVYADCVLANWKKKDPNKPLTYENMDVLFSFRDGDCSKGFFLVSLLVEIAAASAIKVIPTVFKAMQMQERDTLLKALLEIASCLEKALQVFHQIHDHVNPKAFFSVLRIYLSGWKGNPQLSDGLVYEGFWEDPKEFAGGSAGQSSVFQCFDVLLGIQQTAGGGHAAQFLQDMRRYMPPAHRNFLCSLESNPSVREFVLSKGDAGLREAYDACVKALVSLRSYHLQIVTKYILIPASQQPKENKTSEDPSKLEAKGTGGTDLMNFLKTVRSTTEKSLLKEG
Procedure: 2. Test of hIDO1 for Cytological Activity
Changes in Hela cell kynurenine were detected by an LCMS method. With an IC50 value of a compound as an index, an inhibitory effect of the compound on IDO1 enzyme was evaluated.
The culture medium, trypsin, and DPBS were preheated in water bath at 37° C. The culture medium was removed by sucking from cell culture, followed by cleaning the cell culture with 10 mL of DPBS; the preheated trypsin was added to the culture flask, which was revolved to make the culture flask covered by trypsin uniformly, and placed into an incubator at 37° C. with 5% CO2 for digestion for 1-2 minutes; 10-15 mL of the culture medium was used to suspend cells each T150, followed by centrifugation at 800 rpm for 5 minutes. 10 mL of the culture medium was used to resuspend the cells. 1 mL of the cell resuspension was pipetted, and counted with Vi-cell; the Hela cells were diluted to 5×10^5/mL with the culture medium, 80 μL of the diluted Hela cells were added to the 96-well cell plate, and incubated in the an incubator at 37° C. with 5% CO2 for 5-6 hours.
The compound was diluted with DMSO to 1 mM, with 9 gradients, each 3-fold dilution, in duplicate. 5 μL of the already diluted compound DMSO solution was added to the compound plate containing 95 μL of the culture medium. After even mixing, 10 μL of the mixture was transferred to the cell plate.
10 μL of recombinant human interferon-γ was added to result in a final concentration of 100 ng/ml, to induce expression of IDO1. Incubation was carried out in the 5% CO2 incubator at 37° C. for 20 hours. 4 μL of 5% (w/v) trichloroacetic acid was added, followed by even mixing and incubation at 50° C. for 30 minutes. After centrifugation at 2400 rpm for 10 minutes, 40 μL of a supernatant was added to a 96-well V-bottom plate, followed by addition of a precipitant. Centrifugation was carried out at 4000 rpm for 10 minutes after even mixing. 100 μL of the supernatant was transferred to a new 96-well V-bottom plate. A content of kynurenine was detected through LCMS.
A reference well to which the interferon-γ was added but no compound was added was set to have an inhibition rate of 0%, and a reference well to which no Hela cell was added was set to have an inhibition rate of 100%. Data was analyzed with XLFit 5 to calculate an IC50 value of the compound.

[3] = Test for permeability across MDR1; format: in vitro ADME; conditions: dog, MDCK-MDR1
Procedure: Test for Permeability Across MDR1
A sample for test was dissolved in dimethyl sulfoxide (DMSO) or other suitable solvents, to be prepared into 10 mM stock solution. A suitable internal standard (IS) was dissolved in acetonitrile (ACN) or other organic solvents as a stop solution. Specific information would be described in a research report.
Fenoterol, propranolol, and digoxin acted as low-permeability control, high-permeability control, and P-gp substrate in the present research. The stock solutions of these compounds were prepared with DMSO, stocked at 2-8° C., and valid for use within 3 months.
In the present project, a Hank's balanced salt buffer containing 10 mM HEPES was used as a transport buffer.
MDR1-MDCK II cells were cultivated using α-MEM culture media (α-Minimum Essential Media), with a culture condition of 37±1° C., 5% CO2, and saturated relative humidity. Afterwards, the cells were inoculated into a BD Transwell-96-well plate (BD Gentest), with an inoculation density of 2.3×10^5 cells/cm^2, then the cells were placed in a carbon dioxide incubator to be incubated for 4-7 days, and then used for a transport experiment.
A solution to be used was placed in a 37±1° C. water bath kettle to be pre-incubated for 30 minutes. The donor solution and the receiver solution were respectively added to corresponding sides of wells of cell plate (to an apical side and a basolateral side, 75 μL and 250 μL of samples were added respectively), and experiment of bidirectional transport was started. After the addition of the samples, the cell plate was placed in a 37±1° C., 5% CO2 incubator with saturated relative humidity to be incubated for 150 minutes.
The samples were all centrifuged at 3220 g for 10 minutes after being shaken in a vortex manner. A suitable volume of a supernatant was transferred to a sample analyzing plate. If analysis was not carried out immediately after the plate was sealed, the plate was stored at 2-8° C. The analysis was carried out through a method of LC/MS/MS.
The sample for test, fenoterol control, propranolol control, and digoxin were analyzed in a semiquantitative manner, and specific values of analytes to a peak area of the internal standard were taken as concentration of the controls.

T1 sequence (P14902 whole entry): as above

| Structure (SMILES) | IC50 [1] | IC50 [2] | Papp A→B at 150 min, 2 µM [3] | Papp B→A at 150 min, 2 µM [3] |
| --- | --- | --- | --- | --- |
| COc1nonc1/C(=N/O)Nc1ccc(F)c(Br)c1 [Compound 0052] | 109 nM | 24.9 nM |  |  |
| NS(=O)(=O)NCCSc1nonc1/C(=N/O)Nc1cccc(I)c1 [Compound 0295] | 122 nM | 47.2 nM |  |  |
| N=C(N)NC(=N)NCCSc1nonc1/C(=N/O)Nc1ccc(F)c(Br)c1 [Compound 0384] | 173 nM | 152 nM |  |  |
| OCCOc1nonc1/C(=N/O)Nc1ccc(F)c(Br)c1 [Compound 0177] | 279 nM | 54.2 nM |  |  |
| N#C/N=C(\N)NCCSc1nonc1/C(=N/O)Nc1ccc(F)c(Br)c1 [Compound 0310] | 97.3 nM | 12.8 nM |  |  |
| CNS(=O)(=O)NCCSc1nonc1/C(=N/O)Nc1ccc(F)c(Br)c1 [Compound 0240] | 128 nM | 26.2 nM |  |  |
| CSc1nonc1/C(=N/O)Nc1ccc(F)c(Br)c1 [Compound 0068] | 113 nM | 28.6 nM |  |  |
| COC(=O)NCCSc1nonc1/C(=N/O)Nc1ccc(F)c(Br)c1 [Compound 0250] | 138 nM | 27 nM |  |  |
| CCS(=O)(=O)NCCSc1nonc1/C(=N/O)Nc1ccc(F)c(Br)c1 [Compound 0228] | 101 nM | 3.97 nM | 6.78 ×10⁻⁶ cm/s | 10.5 ×10⁻⁶ cm/s |
| O=CNCCOc1nonc1/C(=N/O)Nc1ccc(F)c(Br)c1 [Compound 0153] | 153 nM | 82.4 nM |  |  |
| O=S(=O)(O)NCCOc1nonc1/C(=N/O)Nc1ccc(F)c(Br)c1 [Compound 0148] | 147 nM | 159 nM |  |  |
| N#CCC(=O)NCCSc1nonc1/C(=N/O)Nc1ccc(F)c(Br)c1 [Compound 0249] | 164 nM | 30.3 nM |  |  |
| NS(=O)(=O)NCCOc1nonc1C(=NO)Nc1ccc(F)c(C(F)F)c1 [Compound 0151] | 149 nM | 25.2 nM |  |  |
| CS(=O)(=O)NCCOc1nonc1/C(=N/O)Nc1ccc(F)c(Br)c1 [Compound 0106] | 106 nM | 36.9 nM |  |  |
| NS(=O)(=O)NCCSc1nonc1/C(=N/O)Nc1ccc(F)c(I)c1 [Compound 0273] | 144 nM | 34.4 nM |  |  |
| CNC(=O)COc1nonc1/C(=N/O)Nc1ccc(F)c(Br)c1 [Compound 0139] | 265 nM | 100 nM |  |  |
| NS(=O)(=O)N[C@H]1C[C@@H](Oc2nonc2/C(=N/O)Nc2ccc(F)c(Br)c2)C1 [Compound 0225] | 274 nM | 18.7 nM |  |  |
| O=C(NCCSc1nonc1/C(=N/O)Nc1ccc(F)c(Br)c1)C1CC1 [Compound 0236] | 129 nM | 55.4 nM |  |  |
| CNC(=O)NCCSc1nonc1/C(=N/O)Nc1ccc(F)c(Br)c1 [Compound 0233] | 109 nM | 19.2 nM |  |  |
| N=C(N)NCCSc1nonc1/C(=N/O)Nc1ccc(F)c(Br)c1 [Compound 0383] | 100 nM | 105 nM |  |  |
| NS(=O)(=O)NCCSc1nonc1/C(=N/O)Nc1ccc(F)c(C(F)(F)F)c1 [Compound 0157] | 160 nM | 13.4 nM |  |  |

Continued, values first:

| IC50 [1] | IC50 [2] | Papp A→B at 150 min, 2 µM [3] | Papp B→A at 150 min, 2 µM [3] | Structure (SMILES) |
| --- | --- | --- | --- | --- |
| 54.5 nM | 23.5 nM |  |  | NC(=O)NCCSc1nonc1/C(=N/O)Nc1cccc(I)c1 [Compound 0309] |
| 74.4 nM | 14.8 nM |  |  | O=CNCCSc1nonc1/C(=N/O)Nc1ccc(F)c(Br)c1 [Compound 0245] |
| 74.6 nM | 31.5 nM |  |  | O=C(CSc1nonc1/C(=N/O)Nc1ccc(F)c(Br)c1)NO [Compound 0260] |
| 80.1 nM | 11.2 nM |  |  | CS(=O)(=O)NCCSc1nonc1/C(=N/O)Nc1ccc(F)c(Br)c1 [Compound 0229] |
| 42.3 nM | 8.51 nM |  |  | CNC(=O)CSc1nonc1/C(=N/O)Nc1ccc(F)c(Br)c1 [Compound 0237] |
| 44.3 nM | 7.15 nM |  |  | NC(=O)CSc1nonc1/C(=N/O)Nc1ccc(F)c(Br)c1 [Compound 0251] |
| 60.1 nM | 29.5 nM |  |  | O=C(CO)NCCSc1nonc1/C(=N/O)Nc1ccc(F)c(Br)c1 [Compound 0293] |
| 69.4 nM | 12.9 nM |  |  | O=C(NCCSc1nonc1/C(=N/O)Nc1ccc(F)c(Br)c1)C(F)F [Compound 0287] |
| 55.3 nM | 64.5 nM |  |  | NS(=O)(=O)NCCCOc1nonc1/C(=N/O)Nc1ccc(F)c(Br)c1 [Compound 0118] |
| 89.6 nM | 70.8 nM |  |  | NC(=O)CCSc1nonc1/C(=N/O)Nc1ccc(F)c(Br)c1 [Compound 0262] |
| 77 nM | 9.58 nM |  |  | O=C(NCCSc1nonc1/C(=N/O)Nc1ccc(F)c(Br)c1)NC1CC1 [Compound 0234] |
| 71.5 nM | 123 nM |  |  | NCCOc1nonc1/C(=N/O)Nc1ccc(F)c(Br)c1 [Compound 0147] |
| 85.4 nM | 13.9 nM |  |  | CNC(=O)CCSc1nonc1/C(=N/O)Nc1ccc(F)c(Br)c1 [Compound 0238] |
| 95.7 nM | 17.1 nM |  |  | O=C(CSc1nonc1/C(=N/O)Nc1ccc(F)c(Br)c1)NC1CC1 [Compound 0247] |
